Measurements reported in patent publication US20180289655A1, “Methods and Compositions for the Intravenous Administration of Fumarates for the Treatment of Neurological Diseases” (Biogen MA Inc., priority 2015, published 2018).
Entries after “also recorded” stand apart in the source; their conditions may differ. Counter-ions that a name gives are not always drawn.

Key:
Type in all cases: physicochemical
[1] = Solution stability of DMF in aqueous solution (HPLC); design: DMF assay: unit not given here
Method: Solution stability studies were conducted using 0.2 mg/ml concentration solutions, which were achieved by mixing equal volumes of the stock solution and individual study media. […] Samples stored at 37° C. or ambient temperature were pulled at predetermined time points, and analyzed by HPLC.

[2] = DMF IV formulation development: solubility in solvents and excipient vehicles
Method: 2. […] For example, 2% DMSO (0.1 ml/kg/5 ml/kg*100%=2.0%), 10% PEG400 (1 ml/kg/5 ml/kg*50%=10%) and 20% Captisol (sulfobutyl ether cyclodextrin) (5 ml/kg/5 ml/kg*20%=20%) could be used for rodent IV formulation assumed the dosage of 5 ml/kg. 3. […] The studies were performed by making the PEG400 stock solution and diluting the solution with different vehicles (Table 16). […] 4.

[3] = Solubility of DMF in HPbCD, Captisol, saline and D5W at ambient temperature; details: thermodynamic from solid
Method: Solubility of DMF in these media was determined at ambient temperature by preparing a saturated solution.

[4] = SGF (without pepsin), 0.2 mg/ml, initial
[5] = SGF (without pepsin), 37° C., 24 hr
[6] = SGF (without pepsin), ambient temperature, 24 hr
[7] = SGF (without pepsin), ambient temperature, 48 hr
[8] = SGF (without pepsin), ambient temperature, 72 hr
[9] = SIF (without pancreatin), 0.2 mg/ml, initial
[10] = SIF (without pancreatin), 37° C., 24 hr
[11] = SIF (without pancreatin), ambient temperature, 24 hr
[12] = SIF (without pancreatin), ambient temperature, 48 hr
[13] = SIF (without pancreatin), ambient temperature, 72 hr
[14] = Water, ambient temperature, 24 hr
[15] = Water, ambient temperature, 48 hr
[16] = Water, ambient temperature, 72 hr
[17] = pH 2 Citrate Buffer, 0.2 mg/ml, initial
[18] = pH 2 Citrate Buffer, 37° C., 24 hr
[19] = pH 2 Citrate Buffer, ambient temperature, 24 hr
[20] = pH 2 Citrate Buffer, ambient temperature, 48 hr
[21] = pH 2 Citrate Buffer, ambient temperature, 72 hr
[22] = pH 4 Citrate Buffer, 0.2 mg/ml, initial
[23] = pH 4 Citrate Buffer, 37° C., 24 hr
[24] = pH 4 Citrate Buffer, ambient temperature, 24 hr
[25] = pH 4 Citrate Buffer, ambient temperature, 48 hr
[26] = pH 4 Citrate Buffer, ambient temperature, 72 hr
[27] = pH 6 Citrate Buffer, 0.2 mg/ml, initial
[28] = pH 6 Citrate Buffer, 37° C., 24 hr
[29] = pH 6 Citrate Buffer, ambient temperature, 24 hr
[30] = pH 6 Citrate Buffer, ambient temperature, 48 hr
[31] = pH 6 Citrate Buffer, ambient temperature, 72 hr
[32] = pH 8 Borate Buffer, 0.2 mg/ml, initial
[33] = pH 8 Borate Buffer, 37° C., 24 hr
[34] = pH 8 Borate Buffer, ambient temperature, 24 hr
[35] = pH 10 Borate Buffer, 0.2 mg/ml, initial
[36] = pH 10 Borate Buffer, 37° C., 24 hr
[37] = pH 10 Borate Buffer, ambient temperature, 24 hr

SMILES: COC(=O)/C=C/C(=O)OC [DMF, dimethyl fumarate]
- Stability of DMF in solution at higher pH ([1]; 37° C., aqueous media): decreased rapidly as the solution pH went above 7
- pH of maximum stability of DMF in solution ([1]; 37° C., aqueous media): ~4
- DMF area % [1, 4]: 99.3 area %
- DMF assay [1, 4]: 102.9
- DMF area % [1, 5]: 92.2 area %
- DMF assay [1, 5]: 91.1
- DMF area % [1, 6]: 96.6 area %
- DMF assay [1, 6]: (95.2)
- DMF area % [1, 7]: 95.6 area %
- DMF assay [1, 7]: (92.5)
- DMF area % [1, 8]: 95.4 area %
- DMF assay [1, 8]: (91.6)
- DMF area % [1, 9]: 99.3 area %
- DMF assay [1, 9]: 100.9
- DMF area % [1, 10]: 29.5 area %
- DMF assay [1, 10]: 27.8
- DMF area % [1, 11]: 68.7 area %
- DMF assay [1, 11]: (68.3)
- DMF area % [1, 12]: 64.5 area %
- DMF assay [1, 12]: (60.3)
- DMF area % [1, 13]: 62.2 area %
- DMF assay [1, 13]: (59.0)
- DMF area % ([1]; Water, 0.2 mg/ml, initial): 96.6 area %
- DMF assay ([1]; Water, 0.2 mg/ml, initial): 98.9
- DMF area % ([1]; Water, 37° C., 24 hr): 77.4 area %
- DMF assay ([1]; Water, 37° C., 24 hr): 73.9
- DMF area % [1, 14]: 84.8 area %
- DMF assay [1, 14]: (81.6)
- DMF area % [1, 15]: 85.1 area %
- DMF assay [1, 15]: (80.2)
- DMF area % [1, 16]: 83.5 area %
- DMF assay [1, 16]: (79.3)
- DMF area % [1, 17]: 99.5 area %
- DMF assay [1, 17]: 101.0
- DMF area % [1, 18]: 97.9 area %
- DMF assay [1, 18]: 96.0
- DMF area % [1, 19]: 99.1 area %
- DMF assay [1, 19]: (94.7)
- DMF area % [1, 20]: 98.9 area %
- DMF assay [1, 20]: (93.2)
- DMF area % [1, 21]: 98.7 area %
- DMF assay [1, 21]: (92.0)
- DMF area % [1, 22]: 99.8 area %
- DMF assay [1, 22]: 101.9
- DMF area % [1, 23]: 99.6 area %
- DMF assay [1, 23]: 100.4
- DMF area % [1, 24]: 99.6 area %
- DMF assay [1, 24]: (97.2)
- DMF area % [1, 25]: 99.2 area %
- DMF assay [1, 25]: (98.5)
- DMF area % [1, 26]: 99.6 area %
- DMF assay [1, 26]: (93.9)
- DMF area % [1, 27]: 100 area %
- DMF assay [1, 27]: 101.4
- DMF area % [1, 28]: 92.6 area %
- DMF assay [1, 28]: 91.8
- DMF area % [1, 29]: 97.5 area %
- DMF assay [1, 29]: (90.7)
- DMF area % [1, 30]: 95.3 area %
- DMF assay [1, 30]: (92.5)
- DMF area % [1, 31]: 96.1 area %
- DMF assay [1, 31]: (88.4)
- DMF area % [1, 32]: 98.6 area %
- DMF assay [1, 32]: 101.0
- DMF area % [1, 33]: 17.2 area %
- DMF assay [1, 33]: 15.9
- DMF area % [1, 34]: 46.5 area %
- DMF assay [1, 34]: (44.8)
- DMF area % [1, 35]: 37.1 area %
- DMF assay [1, 35]: 36.1
- DMF area % [1, 36]: 0/0 area %
- DMF assay [1, 36]: 0/0
- DMF area % [1, 37]: 0/0 area %
- DMF assay [1, 37]: 0/0
- Degradation of DMF before initial HPLC determination ([1]; pH 10 borate buffer solution): more than half of DMF degraded before an initial concentration was able to be determined
- Solution or precipitated ([2]; 5 mg/ml DMF in 15% HPbCD, heating then cooling to room temperature, final pH 3.51): solution
- Solution or precipitated ([2]; 5 mg/ml DMF in 20% Captisol, heating then cooling to room temperature, final pH 4.71): clear solution could be achieved
- Suitable for 5 mg/ml dosage? ([2]; 10% PEG400 + 0.5% HPMC): No
- Suitable for 5 mg/ml dosage? ([2]; 10% PEG400 + 0.5% HPMC + 0.2% SDS): No
- Solution or precipitated ([2]; 10% PEG400 + 0.5% HPMC + 0.2% SDS, final concentration 2.8 mg/ml): precipitated
- Solution or precipitated ([2]; 10% PEG400 + 0.5% HPMC, final concentration 2.8 mg/ml): precipitated
- Suitable for 5 mg/ml dosage? ([2]; 10% PEG400 + 1.5% Poloxamer 188): No
- Solution or precipitated ([2]; 10% PEG400 + 1.5% Poloxamer 188, final concentration 2.8 mg/ml): precipitated
- Suitable for 5 mg/ml dosage? ([2]; 10% PEG400 + 1.5% Poloxamer 237): No
- Solution or precipitated ([2]; 10% PEG400 + 1.5% Poloxamer 237, final concentration 2.8 mg/ml): precipitated
- Suitable for 5 mg/ml dosage? ([2]; 10% PEG400 + 2.0% Tween 80): No
- Solution or precipitated ([2]; 10% PEG400 + 2.0% Tween 80, final concentration 2.8 mg/ml): precipitated
- Suitable for 5 mg/ml dosage? ([2]; 10% PEG400 + 15% HPbCD): Might be
- Solution or precipitated ([2]; 10% PEG400 + 15% HPbCD, final concentration 2.8 mg/ml): generated clear solutions at 2.8 mg/ml; also recorded: Clear solution
- Suitable for 5 mg/ml dosage? ([2]; 10% PEG400 + 20% Captisol): Might be
- Solution or precipitated ([2]; 10% PEG400 + 20% Captisol, final concentration 2.8 mg/ml): generated clear solutions at 2.8 mg/ml; also recorded: Clear solution
- Suitable for 5 mg/ml dosage? ([2]; 10% PEG400 + D5W): No
- Suitable for 5 mg/ml dosage? ([2]; 10% PEG400 + D5W phosphate buffer (pH 6.0)): No
- Solution or precipitated ([2]; 10% PEG400 + D5W phosphate buffer (pH 6.0), final concentration 2.8 mg/ml): precipitated
- Solution or precipitated ([2]; 10% PEG400 + D5W, final concentration 2.8 mg/ml): precipitated
- Suitable for 5 mg/ml dosage? ([2]; 10% PEG400 + H2O): No
- Solution or precipitated ([2]; 10% PEG400 + H2O, final concentration 2.8 mg/ml): precipitated
- Suitable for 5 mg/ml dosage? ([2]; 10% PEG400 + Saline (pH 7)): No
- Solution or precipitated ([2]; 10% PEG400 + Saline (pH 7), final concentration 2.8 mg/ml): precipitated
- Suitable for 5 mg/ml dosage? ([2]; 20% Captisol, final pH 4.71): Might be, 5 mg/ml solution could be
- solubility ([2]; DMSO (pure solvent), organic solvent or mixture): 23 to 29 mg/mL
- solubility ([2]; PEG400, organic solvent or mixture): 38 to 46 mg/mL
- solubility ([2]; ethanol, organic solvent or mixture): < 20 mg/mL
- solubility ([2]; organic solvent or mixture, propylene Glycol (PG)): < 20 mg/mL
- solubility at 24 h ([3]; aqueous with cosolvent or surfactant or cyclodextrin, 40% Captisol, pH 4.42): 7.9 mg/mL
- solubility at 24 h ([3]; pH 3.9, aqueous with cosolvent or surfactant or cyclodextrin, 40% HPbCD, pH 3.90): 15.1 mg/mL
- solubility at 24 h ([3]; pH 4.3, aqueous with cosolvent or surfactant or cyclodextrin, 5% HPbCD, pH 4.30): 4.03 mg/mL
- solubility at 24 h ([3]; pH 4.8, aqueous with cosolvent or surfactant or cyclodextrin, 5% Captisol, pH 4.80): 3.18 mg/mL
- solubility at 24 h ([3]; saline or isotonic, D5W (5% Dextrose in water), pH 6.32): 2.39 mg/mL
- solubility at 24 h ([3]; saline or isotonic, Saline (0.9% NaCl), pH 6.67): 2.08 mg/mL
